Source: publication PMC5218480 (PLoS ONE, 2017)

Tested on: MV-4-11 cells
Test: Gene expression microarray analysis (Affymetrix PrimeView) and GSEA
Assay type: cell-based, human
Parameters: RFU PODN (11730768_x_at) / Fold change /veh PODN (11730768_x_at) / RFU LINC00158 (11744669_a_at) / Fold change /veh LINC00158 (11744669_a_at) / RFU DUSP10 (11751237_a_at) / Fold change /veh DUSP10 (11751237_a_at) / RFU ID3 (11757404_x_at) / Fold change /veh ID3 (11757404_x_at) / RFU PLEKHG5 (11737974_s_at) / Fold change /veh PLEKHG5 (11737974_s_at) / RFU LRRC4B (11730491_at) / Fold change /veh LRRC4B (11730491_at) / RFU GIMAP4 (11747438_a_at) / Fold change /veh GIMAP4 (11747438_a_at) / RFU KRT8 (11758183_x_at) / Fold change /veh KRT8 (11758183_x_at) / RFU CNN1 (11734310_a_at) / Fold change /veh CNN1 (11734310_a_at) / RFU VPS37D (11726825_at) / Fold change /veh VPS37D (11726825_at) / RFU C10orf10 (11716522_x_at) / Fold change /veh C10orf10 (11716522_x_at) / RFU KIR2DL2 /// KIR2DL4 /// KIR2DL5A /// KIR2DL5B /// KIR2DS1 /// KIR2DS2 /// KIR2DS3 /// KIR2DS4 /// KIR3DL3 /// KIR3DL3 /// KIR3DS1 (11738374_at) / Fold change /veh KIR2DL2 /// KIR2DL4 /// KIR2DL5A /// KIR2DL5B /// KIR2DS1 /// KIR2DS2 /// KIR2DS3 /// KIR2DS4 /// KIR3DL3 /// KIR3DL3 /// KIR3DS1 (11738374_at) / RFU C1QL1 (11718748_at) / Fold change /veh C1QL1 (11718748_at) / RFU TMPRSS4 (11747572_a_at) / Fold change /veh TMPRSS4 (11747572_a_at) / RFU HAMP (11756126_x_at) / Fold change /veh HAMP (11756126_x_at) / RFU RNFT2 (11725882_a_at) / Fold change /veh RNFT2 (11725882_a_at) / RFU NR4A2 (11747474_a_at) / Fold change /veh NR4A2 (11747474_a_at) / RFU ABCC12 (11746883_a_at) / Fold change /veh ABCC12 (11746883_a_at) / RFU TMEM136 (11760407_x_at) / Fold change /veh TMEM136 (11760407_x_at) / RFU CLDN22 /// WWC2 (11732394_at) / Fold change /veh CLDN22 /// WWC2 (11732394_at) / RFU HLA-DPB1 (11760878_x_at) / Fold change /veh HLA-DPB1 (11760878_x_at) / RFU SPINT1 (11716480_a_at) / Fold change /veh SPINT1 (11716480_a_at) / RFU GAP43 (11754022_s_at) / Fold change /veh GAP43 (11754022_s_at) / RFU A4GNT (11735810_at) / Fold change /veh A4GNT (11735810_at) / RFU PRB3 (11715151_x_at) / Fold change /veh PRB3 (11715151_x_at) / RFU TUBB4B (11761932_at) / Fold change /veh TUBB4B (11761932_at) / RFU CAPN14 (11732068_a_at) / Fold change /veh CAPN14 (11732068_a_at) / RFU TMCC2 (11721928_a_at) / Fold change /veh TMCC2 (11721928_a_at) / RFU IRGQ (11745062_a_at) / Fold change /veh IRGQ (11745062_a_at) / RFU FAM174B (11720279_a_at) / Fold change /veh FAM174B (11720279_a_at) / RFU TMPRSS4 (11748680_a_at) / Fold change /veh TMPRSS4 (11748680_a_at) / RFU FAM212B (11763350_a_at) / Fold change /veh FAM212B (11763350_a_at) / RFU PLEKHG5 (11743358_a_at) / Fold change /veh PLEKHG5 (11743358_a_at) / RFU ZSCAN30 (11745921_a_at) / Fold change /veh ZSCAN30 (11745921_a_at) / RFU CMKLR1 (11741424_a_at) / Fold change /veh CMKLR1 (11741424_a_at) / RFU LOC101060620 /// MAPK8IP1 (11723275_at) / Fold change /veh LOC101060620 /// MAPK8IP1 (11723275_at) / RFU SPTSSB (11747773_x_at) / Fold change /veh SPTSSB (11747773_x_at) / RFU PRSS12 (11739890_at) / Fold change /veh PRSS12 (11739890_at) / RFU BIN1 (11741810_x_at) / Fold change /veh BIN1 (11741810_x_at) / RFU WNT11 (11732464_a_at) / Fold change /veh WNT11 (11732464_a_at) / RFU C10orf10 (11716521_a_at) / Fold change /veh C10orf10 (11716521_a_at) / RFU C5orf56 (11738089_at) / Fold change /veh C5orf56 (11738089_at) / RFU CYB561 (11721691_x_at) / Fold change /veh CYB561 (11721691_x_at) / RFU ANKRD19P (11752326_a_at) / Fold change /veh ANKRD19P (11752326_a_at) / RFU OR2T12 /// OR2T33 /// OR2T8 (11738714_s_at) / Fold change /veh OR2T12 /// OR2T33 /// OR2T8 (11738714_s_at) / RFU VCAN (11748164_a_at) / Fold change /veh VCAN (11748164_a_at) / RFU JSRP1 (11732532_at) / Fold change /veh JSRP1 (11732532_at) / RFU KRTAP10-11 (11738290_x_at) / Fold change /veh KRTAP10-11 (11738290_x_at) / RFU MYO3A (11730013_a_at) / Fold change /veh MYO3A (11730013_a_at) / RFU EBF3 (11725865_a_at) / Fold change /veh EBF3 (11725865_a_at) / RFU CAMK2N1 (11719241_x_at) / Fold change /veh CAMK2N1 (11719241_x_at) / RFU C5orf56 (11738088_a_at) / Fold change /veh C5orf56 (11738088_a_at) / RFU OLFML3 (11715873_a_at) / Fold change /veh OLFML3 (11715873_a_at) / RFU LOC100653217 /// NTM (11731650_a_at) / Fold change /veh LOC100653217 /// NTM (11731650_a_at) / RFU MAPK11 (11762145_a_at) / Fold change /veh MAPK11 (11762145_a_at) / RFU FIZ1 (11724087_x_at) / Fold change /veh FIZ1 (11724087_x_at) / RFU OASL (11726364_x_at) / Fold change /veh OASL (11726364_x_at) / RFU SOX15 (11748057_x_at) / Fold change /veh SOX15 (11748057_x_at) / RFU CD79A (11719716_a_at) / Fold change /veh CD79A (11719716_a_at) / RFU HIST1H1D (11736915_at) / Fold change /veh HIST1H1D (11736915_at) / RFU CASKIN2 (11723855_a_at) / Fold change /veh CASKIN2 (11723855_a_at) / RFU LOC730098 (11760151_x_at) / Fold change /veh LOC730098 (11760151_x_at) / RFU OR4N2 (11742367_at) / Fold change /veh OR4N2 (11742367_at) / RFU PRRT2 (11749266_a_at) / Fold change /veh PRRT2 (11749266_a_at) / RFU SNX32 (11753110_a_at) / Fold change /veh SNX32 (11753110_a_at) / RFU CDHR5 (11726645_a_at) / Fold change /veh CDHR5 (11726645_a_at) / RFU RCAN1 (11760418_a_at) / Fold change /veh RCAN1 (11760418_a_at) / RFU FAM167A (11723789_a_at) / Fold change /veh FAM167A (11723789_a_at) / RFU FAM26E (11764081_at) / Fold change /veh FAM26E (11764081_at) / RFU ISYNA1 (11749810_s_at) / Fold change /veh ISYNA1 (11749810_s_at) / RFU ACY1 (11761880_at) / Fold change /veh ACY1 (11761880_at) / RFU 11764098_at / Fold change /veh 11764098_at / RFU SAMD14 (11745864_x_at) / Fold change /veh SAMD14 (11745864_x_at) / RFU NPB (11741838_a_at) / Fold change /veh NPB (11741838_a_at) / RFU TMPRSS6 (11731388_a_at) / Fold change /veh TMPRSS6 (11731388_a_at) / RFU KRTAP10-2 (11738614_at) / Fold change /veh KRTAP10-2 (11738614_at) / RFU ARHGAP8 /// PRR5-ARHGAP8 (11727945_x_at) / Fold change /veh ARHGAP8 /// PRR5-ARHGAP8 (11727945_x_at) / RFU KRTAP5-7 /// NADSYN1 (11734609_at) / Fold change /veh KRTAP5-7 /// NADSYN1 (11734609_at) / RFU RASL12 (11751679_a_at) / Fold change /veh RASL12 (11751679_a_at) / RFU CDKN2B (11736163_a_at) / Fold change /veh CDKN2B (11736163_a_at) / RFU PRF1 (11729649_at) / Fold change /veh PRF1 (11729649_at) / RFU, ZNF638 /// ZNF638-IT1 / Fold change vs veh, ZNF638 /// ZNF638-IT1 / RFU, PANK3 / Fold change vs veh, PANK3 / RFU, SH3YL1 / Fold change vs veh, SH3YL1 / RFU, ZEB2 / Fold change vs veh, ZEB2 / RFU, NRIP1 / Fold change vs veh, NRIP1 / RFU, PTTG1IP / Fold change vs veh, PTTG1IP / RFU, CAPN2 / Fold change vs veh, CAPN2 / RFU, MED14 / Fold change vs veh, MED14 / RFU, SNORA58 / Fold change vs veh, SNORA58 / RFU, C1orf63 / Fold change vs veh, C1orf63 / RFU, LRRFIP1 / Fold change vs veh, LRRFIP1 / RFU, NDUFAF7 / Fold change vs veh, NDUFAF7 / RFU, SLC12A2 / Fold change vs veh, SLC12A2 / RFU, IBTK / Fold change vs veh, IBTK / RFU, ESF1 / Fold change vs veh, ESF1 / Fold change vs veh, TMEM50B / RFU, TAOK1 / Fold change vs veh, TAOK1 / RFU, ACBD3 / Fold change vs veh, ACBD3 / RFU, TMA16 / Fold change vs veh, TMA16 / RFU, RWDD3 / Fold change vs veh, RWDD3 / RFU, BCAT1 / Fold change vs veh, BCAT1 / RFU, EDEM3 / Fold change vs veh, EDEM3 / RFU, TMEM33 / Fold change vs veh, TMEM33 / RFU, WDR75 / Fold change vs veh, WDR75 / RFU, AHCTF1 / Fold change vs veh, AHCTF1 / RFU, TFRC / Fold change vs veh, TFRC / RFU, ZDHHC17 / Fold change vs veh, ZDHHC17 / RFU, NOM1 / Fold change vs veh, NOM1 / RFU, ARL8B / Fold change vs veh, ARL8B / RFU, ZBTB11 / Fold change vs veh, ZBTB11 / RFU, TAMM41 / Fold change vs veh, TAMM41 / RFU, KIAA1704 /// LOC100996395 / Fold change vs veh, KIAA1704 /// LOC100996395 / RFU, ING1 / Fold change vs veh, ING1 / RFU, TRMT61B / Fold change vs veh, TRMT61B / RFU, FUBP3 / Fold change vs veh, FUBP3 / RFU, TP53 / Fold change vs veh, TP53 / RFU, TNKS2 / Fold change vs veh, TNKS2 / RFU, ZFP14 / Fold change vs veh, ZFP14 / RFU, ACTR2 / Fold change vs veh, ACTR2 / RFU, PPP3R1 / Fold change vs veh, PPP3R1 / RFU, PIK3R1 / Fold change vs veh, PIK3R1 / RFU, HNRNPA1 / Fold change vs veh, HNRNPA1 / RFU, RNF170 / Fold change vs veh, RNF170 / RFU, ZNF28 / Fold change vs veh, ZNF28 / RFU, RNGTT / Fold change vs veh, RNGTT / RFU, OGT / Fold change vs veh, OGT / RFU, BRD1 / Fold change vs veh, BRD1 / RFU, MARS / Fold change vs veh, MARS / RFU, ZNF655 / Fold change vs veh, ZNF655 / RFU, FAHD1 / Fold change vs veh, FAHD1 / RFU, BDP1 / Fold change vs veh, BDP1 / RFU, LRRCC1 / Fold change vs veh, LRRCC1 / RFU, ARID1A / Fold change vs veh, ARID1A / RFU, ZNF146 / Fold change vs veh, ZNF146 / RFU, ZNF330 / Fold change vs veh, ZNF330 / RFU, GPN3 / Fold change vs veh, GPN3 / RFU, C9orf123 / Fold change vs veh, C9orf123 / RFU, N4BP2L2 / Fold change vs veh, N4BP2L2 / RFU, ARFIP1 / Fold change vs veh, ARFIP1 / RFU, FAM179B / Fold change vs veh, FAM179B / RFU, BCL10 / Fold change vs veh, BCL10 / RFU, UHRF1BP1L / Fold change vs veh, UHRF1BP1L / RFU, BET1 / Fold change vs veh, BET1 / RFU, CNOT2 / Fold change vs veh, CNOT2 / RFU, ZNF268 / Fold change vs veh, ZNF268 / Fold change vs veh, ZNF507 / RFU, DGCR2 / Fold change vs veh, DGCR2 / RFU, WDSUB1 / Fold change vs veh, WDSUB1 / Fold change vs veh, HSP90B1 /// MIR3652 / RFU, ADSS / Fold change vs veh, ADSS / RFU, GK / Fold change vs veh, GK / RFU, ZNF148 / Fold change vs veh, ZNF148 / RFU, TAF9 / Fold change vs veh, TAF9 / RFU, SLC1A5 / Fold change vs veh, SLC1A5 / RFU, SLMO2 / Fold change vs veh, SLMO2 / RFU, ABCC4 / Fold change vs veh, ABCC4 / RFU, LOC101060439 /// RAP1B / Fold change vs veh, LOC101060439 /// RAP1B / RFU, RFX7 / Fold change vs veh, RFX7 / RFU, GTPBP10 / Fold change vs veh, GTPBP10 / RFU, CNEP1R1 / Fold change vs veh, CNEP1R1 / RFU, BIVM-ERCC5 /// ERCC5 / Fold change vs veh, BIVM-ERCC5 /// ERCC5 / RFU, ILF3 / Fold change vs veh, ILF3 / RFU 11762660_at / Fold change /veh 11762660_at / RFU VCAN (11757783_s_at) / Fold change /veh VCAN (11757783_s_at) / RFU DDX43 (11728927_at) / Fold change /veh DDX43 (11728927_at) / RFU KRT8 (11758188_x_at) / Fold change /veh KRT8 (11758188_x_at) / RFU NKD1 (11759106_at) / Fold change /veh NKD1 (11759106_at) / RFU SRD5A1 (11742802_a_at) / Fold change /veh SRD5A1 (11742802_a_at) / RFU TPSAB1 /// TPSB2 (11721975_s_at) / Fold change /veh TPSAB1 /// TPSB2 (11721975_s_at) / RFU GSTM3 (11746129_a_at) / Fold change /veh GSTM3 (11746129_a_at) / RFU IL23R (11737362_x_at) / Fold change /veh IL23R (11737362_x_at) / RFU TMEM51 (11727254_a_at) / Fold change /veh TMEM51 (11727254_a_at) / RFU PIWIL2 (11732686_x_at) / Fold change /veh PIWIL2 (11732686_x_at) / RFU ORM1 (11744905_x_at) / Fold change /veh ORM1 (11744905_x_at) / RFU CCDC152 (11743942_at) / Fold change /veh CCDC152 (11743942_at) / RFU ECM1 (11717891_a_at) / Fold change /veh ECM1 (11717891_a_at) / RFU IL23R (11748794_a_at) / Fold change /veh IL23R (11748794_a_at) / RFU TNFAIP8L3 (11732012_x_at) / Fold change /veh TNFAIP8L3 (11732012_x_at) / RFU MBOAT4 (11741988_at) / Fold change /veh MBOAT4 (11741988_at) / RFU 11764193_at / Fold change /veh 11764193_at / RFU TMEM53 (11763286_at) / Fold change /veh TMEM53 (11763286_at) / RFU MAGEB2 (11727129_at) / Fold change /veh MAGEB2 (11727129_at) / RFU TMEM200A (11744735_a_at) / Fold change /veh TMEM200A (11744735_a_at) / RFU CCDC152 (11751479_a_at) / Fold change /veh CCDC152 (11751479_a_at) / RFU FAM211A (11726209_a_at) / Fold change /veh FAM211A (11726209_a_at) / RFU RGS16 (11746705_a_at) / Fold change /veh RGS16 (11746705_a_at) / RFU VCAN (11755009_s_at) / Fold change /veh VCAN (11755009_s_at) / RFU RHOB (11743442_s_at) / Fold change /veh RHOB (11743442_s_at) / RFU RGS16 (11720943_a_at) / Fold change /veh RGS16 (11720943_a_at) / RFU RGS16 (11720944_at) / Fold change /veh RGS16 (11720944_at) / RFU, VPS4B / Fold change vs veh, VPS4B / RFU, CREB1 / Fold change vs veh, CREB1 / RFU, DNAJC13 / Fold change vs veh, DNAJC13 / RFU, GNAQ / Fold change vs veh, GNAQ / RFU, CDK5R1 / Fold change vs veh, CDK5R1 / RFU, ZRANB3 / Fold change vs veh, ZRANB3 / RFU, CUL4A / Fold change vs veh, CUL4A / RFU, CCNY / Fold change vs veh, CCNY / RFU, UFL1 / Fold change vs veh, UFL1 / RFU, COG3 / Fold change vs veh, COG3 / RFU, DIAPH2 / Fold change vs veh, DIAPH2 / RFU, SKA2 / Fold change vs veh, SKA2 / RFU, AFF3 / Fold change vs veh, AFF3 / RFU, LMF1 / Fold change vs veh, LMF1 / RFU, IPO11 / Fold change vs veh, IPO11 / RFU, DFFB / Fold change vs veh, DFFB / RFU, FOXP1 / Fold change vs veh, FOXP1 / RFU, CARD8 / Fold change vs veh, CARD8 / RFU, STRN3 / Fold change vs veh, STRN3 / RFU, ADK / Fold change vs veh, ADK / RFU, RASSF2 / Fold change vs veh, RASSF2 / RFU, WIPF1 / Fold change vs veh, WIPF1 / RFU, LARP1B / Fold change vs veh, LARP1B / RFU, RASA1 / Fold change vs veh, RASA1 / RFU, RB1 / Fold change vs veh, RB1 / RFU, PPFIA1 / Fold change vs veh, PPFIA1 / RFU, MAT2A / Fold change vs veh, MAT2A / RFU, CCT5 / Fold change vs veh, CCT5 / RFU, WDR92 / Fold change vs veh, WDR92 / RFU, CUX1 / Fold change vs veh, CUX1 / RFU, TTC7A / Fold change vs veh, TTC7A / RFU, TMEM135 / Fold change vs veh, TMEM135 / RFU, DEPTOR / Fold change vs veh, DEPTOR / RFU, CPM / Fold change vs veh, CPM / RFU, DNAJB6 / Fold change vs veh, DNAJB6 / RFU, CACNA2D3 / Fold change vs veh, CACNA2D3 / RFU, DTX4 / Fold change vs veh, DTX4 / RFU, TFCP2 / Fold change vs veh, TFCP2 / RFU, GMCL1 /// GMCL1P1 / Fold change vs veh, GMCL1 /// GMCL1P1 / RFU, AEBP2 / Fold change vs veh, AEBP2 / RFU, SNHG1 /// SNORD22 /// SNORD25 /// SNORD26 /// SNORD27 /// SNORD28 /// SNORD29 /// SNORD31 / Fold change vs veh, SNHG1 /// SNORD22 /// SNORD25 /// SNORD26 /// SNORD27 /// SNORD28 /// SNORD29 /// SNORD31 / Fold change (Aza/veh), C12orf56 (ProbeSet 11735607_a_at) / Fold change (ACY-1035/veh), C12orf56 (ProbeSet 11735607_a_at) / Fold change (Aza/veh), FGFR1OP (ProbeSet 11751329_s_at) / Fold change (ACY-1035/veh), FGFR1OP (ProbeSet 11751329_s_at) / Fold change (Aza/veh), VPS36 (ProbeSet 11739960_a_at) / Fold change (ACY-1035/veh), VPS36 (ProbeSet 11739960_a_at) / RFU SYPL1 (11715823_x_at) / Fold change /veh SYPL1 (11715823_x_at) / RFU IGFBP7 (11715501_s_at) / Fold change /veh IGFBP7 (11715501_s_at) / RFU REEP3 (11722064_at) / Fold change /veh REEP3 (11722064_at) / RFU IGLL1 (11728026_x_at) / Fold change /veh IGLL1 (11728026_x_at): dose or concentration left out as unconfirmed
Details: ProbeSet 11748335_a_at; LIST B

Nc1ncn([C@@H]2O[C@H](CO)[C@@H](O)[C@H]2O)c(=O)n1 [azacitidine]
Fold change vs veh, SLMO2: 0.87
